How the values were obtained:
p62-dependent mitophagy = test: Luciferase-p62 clearance assay, stated for HDFs; assay type: cell-based, human; details: 10 μM; HDFs as printed
Procedure: FIGS. 15A-15C show hydroxycinnamic acids (HCAs) tested in mitophagy assays in primary HDFs. […] 80,000 mixed aged Fibroblasts expressing the Su9-Halo-GFP reporter were treated for 48 h with the indicated HCAs. A change in the reporter excitation occurs because the GFP tag is quenched in the lysosome environment, indicating mitophagy.
To identify p62-dependent materials which increase mitophagy, a Luciferase-p62 Assay was established. This method provides an approach to measure the ability of a material to modulate p62-dependent mitophagy by using an inducible firefly luciferase-p62 (Fluc-p62) reporter cell system. In this assay, p62 levels are driven by doxycycline treatment. After levels increased, expression of Fluc-p62 is turned off by removal of doxycycline, materials are then added and assessed for how they affect clearance of Fluc-p62 protein, which is proportionate to cellular mitophagy rates (Kelly et al.). […]
Test materials including bioactive materials were screened in mouse embryonic fibroblasts (MEFs, Harada et al.) expressing the TET-inducible p62-fluc construct as previously described (Brown et al.). […] Subsequently, cells were treated with test materials for 48 hours in normal growth medium and analysed using ONE-Glo™+Tox Luciferase Reporter and Cell Viability Assay (Promega) by following the manufacturer's protocol.

[1] = test system: primary human dermal fibroblasts (HDFs); test: Mitophagy assay, mt-mKeima reporter, fluorescence microscopy; assay type: cell-based
Procedure: Primary human dermal fibroblasts (HDFs) were cultured in DMEM supplemented with 10 percent FBS, 100 units per milliliter penicillin/streptomycin, and 2 millimolar L-glutamine in a humidified atmosphere containing 5 percent carbon dioxide at 37 degrees Celsius. Stable expression of mt-mKeima was achieved through retroviral transduction (Kelly et al.). Cells stably expressing mt-mKeima were seeded in a 35 mm glass bottom dish (MatTek). The live-cell mt-Keima signal was obtained via widefield microscopy using the DMi8 and 2 filtersets to obtain the acidic (561 nm excitation, “red”) and pH-neutral (480 nm, “green”) mKeima signals. Using FIJI/ImageJ, a macro was applied to the mt-mKeima signal to extract mitolysosomes. In detail, images were masked by applying MaxEntropy threshold to the images obtained with 561 nm excitation to remove low mt-mKeima red signal and background. Then, images were generated by subtracting the signal of green mKeima from that of red mKeima. Resulting images were binarised with the MaxEntropy threshold algorithm to extract mitolysosomes. Mitophagy events were determined as the number of puncta per cell. Cells stably expressing pSu9-Halo-GFP seeded in a 35 glass bottom dish (MatTek) were stained with 1 μM Halo TMR ligand (Promega, G8251) for 48 h. Fluorescence images were obtained using an LSM700 confocal microscope (Zeiss). The number of mitolysosomes (GFP-Halo+puncta) per cell was quantified using proprietary plugin in Fiji/ImageJ. Both mKeima and pSu9-Halo-GFP reporters directly visualize frequency of mitophagy events (e.g., mitochondria delivered by autophagolysosomes to lysosomes for degradation) (Kelly et al.).

p21 = test: Immunostaining for p21 (percentage of p21-positive cells); assay type: cell-based, human
Procedure: Immunofluorescence analyses were performed as described previously (Carroll et al.). In brief, cells were seeded on coverslips in 24-well plates and fixed in 4% formaldehyde in PBS for 10 min at room temperature followed by permeabilization in 0.5% Triton X-100 (Sigma-Aldrich) in PBS for 4 min at room temperature (Ki67 and p21) or in methanol for 4 min at −20° C. (LC3 and p62). Cells were then blocked for 1 h in 5% normal goat serum (Sigma-Aldrich) in PBS at room temperature and incubated with primary antibodies overnight at 4° C. Cells were washed three times and incubated with the appropriate secondary antibodies for 1 h at room temperature (Thermo Fisher Scientific, A31556 and A21235, 1:1000). Cells were washed, and coverslips were mounted on slides with Prolong Gold antifade mountant with DAPI (Invitrogen). Fluorescence images were obtained as described above. The following primary antibodies were used: rabbit anti-Ki67 (Abcam, ab 15580, 1:250), rabbit anti-p21 (CST, 2947, 1:1000), mouse anti-LC3 (NanoTools, 0260-100, 1:200) and rabbit anti-p62 (MBL, PM045, 1:500).

[2] = test system: human dermal fibroblasts (HDFs); test: EdU incorporation assay; assay type: cell-based; details: HDFs from aged donors; 30 μM, 7 h
IL-8 = test: SASP assessment, IL-8 mRNA by qPCR; assay type: cell-based, human; details: HDFs; 30 μM for 5 h prior to IR; 11 days after IR
Procedure: Quantibody Human Cytokine Arrays for 20 cytokines (RayBiotech; QAH-CYT-1) were performed using conditioned media collected from primary dermal fibroblasts culture. mRNA levels of human IL-6 and IL-8 were measured by quantitative polymerase chain reaction (qPCR. Total RNA was extracted using RNeasy Mini Kit (QIAGEN, 74104). From 500 ng of total RNA, first-strand complementary DNA (cDNA) was produced using SuperScript III reverse transcriptase (Invitrogen, 18080044). Quantitative PCR was performed in a StepOnePlus Real-Time PCR system (Applied Biosystems) using Power SYBR Green PCR Master Mix (Applied Biosystems, 4367659). mRNA levels were determined with the […] and normalised to GAPDH levels.

[3] = HDFs from aged donors, 30 μM, 7 h

CC(=O)Oc1ccc(N2C(=O)C3C(Cc4ccccc4)NC4(C(=O)Nc5c4ccc(Cl)c5C)C3C2=O)cc1 (centres unmarked) [STOCKIN-57543]
increase p62-dependent mitophagy levels over baseline (p62-dependent mitophagy): 33% | functional mitophagy (mitophagy events) [1, 3]: restoring functional mitophagy | rescue of suppressed basal mitophagy in the absence of p62 ([1]; HDFs with p62 knockdown): unable to rescue the suppression of basal mitophagy | IR-associated decrease in mitophagy ([1]; HDFs, 30 μM for 5 h prior to 20 Gy IR): preventing IR-associated decrease in mitophagy | p21 expression (p21; [3]): decreasing elevated p21 expression | IR-associated increased p21 expression (p21; HDFs, treatment 5 h prior to IR): mitigating IR-associated increased p21 expression | cellular proliferation capacity (EdU incorporation) [2]: restoring cellular proliferation capacity | IR-associated increase in IL-8 level (mRNA) (IL-8): mitigating IR-associated increases in levels of the SASP factors IL-6 and IL-8
